Here are results for two molecules from patent US8148534B2, “Inhibitors of 11-beta-hydroxysteroid dehydrogenase 1” (Eli Lilly and Company, priority 2006, dated 2012).

SMILES strings stand for the structures.

Experiment [1] addresses T1, 11β-HSD1 in primary human aortic smooth muscle cells (AoSMC) (Homo sapiens, UniProt P28845).
T1 construct: containing 12 ng/mL hTNFα to induce expression of 11β-HSD1; endogenous in cells; host or cells: primary human aortic smooth muscle cells (AoSMC), induced with hTNFα
As to the kind of experiment: Human Aortic Smooth Muscle Cell Assay (cortisone to cortisol conversion). Type of experiment: cell-based. As to conditions: hTNFα induced, cortisol by time resolved immunoassay. As for the experimental part:
Human Aortic Smooth Muscle Cell Assay
Primary human aortic smooth muscle cells (AoSMC) are cultured in 5% FBS growth medium to a passage number of 6, then pelleted by centrifugation and resuspended at a density of 9×10^4 cells/mL in 0.5% FBS assay medium containing 12 ng/mL hTNFα to induce expression of 11β-HSD1. Cells are seeded into 96-well tissue culture assay plates at 100 μL/well (9×10^3 cells/well) and incubated for 48 hours at 37° C., 5% CO2. Following induction, cells are incubated for 4 hours at 37° C., 5% CO2 in assay medium containing test compounds then treated with 10 μL/well of 10 μM cortisone solubilized in assay medium, and incubated for 16 hours at 37° C., 5% CO2. Medium from each well is transferred to a plate for subsequent analysis of cortisol using a competitive fluorescence resonance time resolved immunoassay. […] Higher levels of free cortisol result in diminishing energy transfer from the Europium-IgG to the APC-cortisol complex resulting in less APC fluorescence. Fluorescent intensities for Europium and APC are measured using a LJL Analyst AD. Europium and APC […] is measured using 360 nm excitation and 615 nm and 650 nm emission filters respectively. […] Fluorescent intensities measured for APC are modified by dividing by the Eu fluorescence (APC/Eu). […]

For experiment [2], the system named is cortisone to cortisol conversion in male C57BL/6 mice. As to the kind of experiment: Acute In Vivo Cortisone Conversion Assay. Particulars: oral dose of 10 mg/kg, cortisone challenge 30 mg/kg s.c. after 16 hours, serum cortisol. As for the experimental part: Acute In Vivo Cortisone Conversion Assay
In general, compounds are dosed orally into mice, the mice are challenged with a subcutaneous injection of cortisone at a set timepoint after compound injection, and the blood of each animal is collected some time later. Separated serum is then isolated and analyzed for levels of cortisone and cortisol by LC-MS/MS, followed by calculation of mean cortisol and percent inhibition of each dosing group. Specifically, male C57BL/6 mice are obtained from Harlan Sprague Dawley at average weight of 25 grams. Exact weights are taken upon arrival and the mice randomized into groups of similar weights. Compounds are prepared in 1% w-w HEC, 0.25% w-w polysorbate 80, 0.05% w-w Dow Corning antifoam #1510-US at various doses based on assumed average weight of 25 grams. Compounds are dosed orally, 200 μl per animal, followed by a subcutaneous dose, 200 μl per animal, of 30 mg/kg cortisone at 1 to 24 hours post compound dose. At 10 minutes post cortisone challenge, each animal is euthanized for 1 minute in a CO2 chamber, followed by blood collection via cardiac puncture into serum separator tubes. Once fully clotted, tubes are spun at 2500×g, 4° C. for 15 minutes, the serum transferred to wells of 96-well plates (Corning Inc, Costar #4410, cluster tubes, 1.2 ml, polypropylene), and the plates are frozen at −20° C. until analysis by LC-MS/MS. […]

The target of experiment [3] is recombinant human 11β-HSD type 1 enzyme (Homo sapiens, UniProt P28845). In words: 11-β-HSD Type 1 Enzyme Assay (NADPH fluorescence). It is filed as biochemical. Particulars: three hour incubation at room temperature, read-out: Human 11-βHSD1 IC50. As for the experimental part: 11-β-HSD Type 1 Enzyme Assay
Chain of recombinant human 11β-HSD type 1 enzyme (P28845 whole entry): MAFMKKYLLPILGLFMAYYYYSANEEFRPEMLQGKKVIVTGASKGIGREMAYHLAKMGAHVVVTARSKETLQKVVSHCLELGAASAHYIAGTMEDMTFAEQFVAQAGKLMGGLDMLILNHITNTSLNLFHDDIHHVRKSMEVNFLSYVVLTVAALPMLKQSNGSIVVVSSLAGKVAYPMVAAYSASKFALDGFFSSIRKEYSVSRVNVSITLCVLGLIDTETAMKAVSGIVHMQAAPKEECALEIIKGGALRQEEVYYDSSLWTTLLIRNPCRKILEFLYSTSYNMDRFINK
Human 11-β-HSD type 1 activity is measured by assaying NADPH production by fluorescence assay. Solid compounds are dissolved in DMSO to a concentration of 10 mM. Twenty microliters of each are then transferred to a column of a 96-well polypropylene Nunc plate where they are further diluted 50-fold followed by subsequent two-fold titration, ten times across the plate with additional DMSO using a Tecan Genesis 200 automated system. Plates are then transferred to a Tecan Freedom 200 system with an attached Tecan Temo 96-well head and an Ultra 384 plate reader. Reagents are supplied in 96-well polypropylene Nunc plates and are dispensed individually into black 96-well Molecular Devices High Efficiency assay plates (40 μL/well capacity) in the following fashion: 9 μL/well of substrate (2.22 mM NADP, 55.5 μM Cortisol, 10 mM Tris, 0.25% Prionex, 0.1% Triton X100), 3 μL/well of water to compound wells or 3 μL to control and standard wells, 6 μL/well recombinant human 11β-HSD type 1 enzyme, 2 μL/well of compound dilutions. […] Plates are then shaken once more for 15 seconds then placed into an Ultra 384 microplate reader (355EX/460EM) for detection of NADPH fluorescence.

T1 sequence (P28845 whole entry): as above

In turn, `O=C(c1ccc(-c2cc(Cl)c(C[C@@H]3CCN(N4CCCCC4)C3=O)c(Cl)c2)cc1)N1CCC(C(F)(F)F)CC1` [Example 1, (R)-3-[3,5-Dichloro-4′-(4-trifluoromethyl-piperidine-1-carbonyl)-biphenyl-4-ylmethyl]-1-piperidin-1-yl-pyrrolidin-2-one] registered an IC50 in experiment [1] of 16.8 nM. Also, in experiment [2], the “% Inhibition after 16 hours (dose of 10 (mg/kg))” value is given as 78%.

`O=C(c1ccc(-c2cc(Cl)c(C[C@@H]3CCN(N4CCCCC4)C3=O)c(Cl)c2)cc1)N1CCC(O)CC1` [Example 2, (R)-3-[3,5-Dichloro-4′-(4-hydroxy-piperidine-1-carbonyl)-biphenyl-4-ylmethyl]-1-piperidin-1-yl-pyrrolidin-2-one]: the 50% inhibitory concentration (IC50) in experiment [3] was determined as 357 nM; in experiment [1], 10.4 nM.

By IC50 is commonly meant the midpoint of a concentration-inhibition curve.
